Data published in US20220287995A1, “COMPOSITIONS AND METHODS FOR INHIBITING BACTERIAL VIRULENCE AND FLIM-BASED DEVICE AND METHOD FOR ANTIBIOTIC SUSCEPTIBILITY TESTING” (THE REGENTS OF THE UNIVERSITY OF CALIFORNIA, priority 2019, published 2022).

What was measured:
[1] = tested on: P. aeruginosa; test: Surface density measurement of P. aeruginosa from virulence assays; format: cell-based, Pseudomonas aeruginosa; conditions: virulence assays after 6 hours of growth, carbon source 0.2%
Protocol: The density of P. aeruginosa cells on surface was measured as described previously (1) using amoebae cell viability phase contrast images that were acquired using a 10× or 20× objective. The IJ_Isodata algorithm (ImageJ 1.52q) was applied to phase contrast images to construct cell boundary masks. The cell density was computed by dividing the area covered by P. aeruginosa by the total area of the image.

[2] = tested on: P. aeruginosa; test: Fluorescence lifetime imaging microscopy (FLIM) phasor g-values of P. aeruginosa; format: cell-based, Pseudomonas aeruginosa; conditions: for enzyme-bound NADH pool: surface-attached P. aeruginosa treated with carbon source; for fluorescence lifetime g-value / change in FLIM g-value: surface-attached; for fluorescence lifetime g-value: modified minimal medium, single carbon source at 0.2%; for change in FLIM g-value: rich (PS:DB) medium, carbon source 0.2% added at 3 hours, harvested after 1 additional hour
Protocol: Fluorescence lifetime measurements were performed using a custom-built multiphoton microscope setup based on an Olympus FV1000 system and an Olympus IX81 microscope (Olympus, Waltham, Mass.) as described previously (68). The FLIM microscope uses an 80 MHz ultrafast Ti:Sapphire Mai Tai laser (Spectra-physics, Santa Clara, Calif.) set at 740 nm for mulitphoton excitation. The setup used a 690-nm SP dichroic-460/80 nm filter pair for separating emission and a PlanApo N Olympus oil immersion 60× (1.42 NA) objective (Olympus, Waltham, Mass.), which is capable of bacterial single-cell resolution imaging. An H7422P-40 photomultiplier tube module (Hamamatsu, Bridgewater, N.J.) and A320 FastFLIM Box (ISS, Champaign, Ill.) were used to measure fluorescence lifetime. Image acquisition was controlled by SimFCS software version 4 (64-bit) (Laboratory for Fluorescence Dynamics, Irvine, Calif.). Planktonic and surface-attached cells were isolated by modifying a protocol described previously (12, 50) (FIG. 11A).
Masks for bacterial cells were created through SimFCS using fluorescence intensity images and image intensity thresholding (FIG. 11B). Fluorescence lifetimes within the masked areas were transformed using
The microscope was calibrated before each session by setting the fluorescence lifetime obtained for 10 μM rhodamine 110 (Sigma, St. Louis, Mo.) to 4.0 ns. The laser power was set to 20% (<3 mW at back aperture of the microscope) using an acousto-optic modulator (AA Opto Electronic, Orsay, France). Sub-cellular fluorescence lifetimes (FIG. 1A) were collected using the 20× digital zoom mode at a rate of 1.7 sec/frame. All other P. aeruginosa measurements were performed using the 6× digital zoom mode using the same frame rate. For all measurements, 40 sequential frames were acquired to generate a single FLIM image.
P. aeruginosa strains were cultured overnight in PS:DB, diluted 1:100 into 35 mm glass-bottom dishes (MatTek Corporation, Ashland, Mass.) containing the same medium, and cultured for 4 to 6 hours (FIGS. 2E-F, 4A, 5A, and 8C). Alternatively, strains were cultured overnight in minimal medium A, diluted 1:100 into modified minimal media A with single carbon sources in culture tubes (FIGS. 6D-E and 7A-B, D) or glass-bottom dishes and cultured to an OD600 of 0.2 (FIG. 2E-F).
Planktonic cells were transferred to a new glass-bottom dish, immobilized using an agar pad, and imaged immediately (FIG. 11A). Agar pads were made using 1% Bacto agar (BD, Franklin Lakes, N.J.) and DB buffer (1, 2) or modified minimal medium A containing no carbon source for strains that were cultured in PS:DB or modified minimal medium, respectively, and were cut into 1.5×1.5 cm squares. Surface-attached cells were isolated by aspirating the supernatant from the dish, washing the dish to remove planktonic cells with DB buffer or modified minimal medium with no carbon source for strains cultured in PS:DB or modified minimal medium, respectively, and placing an agar pad on the dish surface, and were imaged immediately. Imaging was performed at room temperature.
For experiments involving FLIM measurements of the effects of antimycin A (FIG. 7D), P. aeruginosa were grown in culture tubes to saturation in modified minimal medium A containing 0.2% citrate, diluted 1:100 into the same medium in culture tubes, supplemented with 10 μM antimycin A (Sigma, St. Louis, Mo.) with 0.1% ethanol or with 0.1% ethanol, cultured to an OD600 of 0.2, and immediately measured for fluorescence lifetime. Fluorescence lifetimes for pyocyanin and pyoverdine (FIG. 7C) were measured using solutions of 6.2 mM pyocyanin (P0046, Sigma, St. Louis, Mo.) in DMSO and 5 mg/mL pyoverdine (P8124, Sigma, St. Louis, Mo.) in deionized water, respectively. For FIG. 6D, cells with fluorescence intensities below a value of 1.0, as reported by the SimFCS software, were excluded from the analysis. […]

| Structure (SMILES) | surface density of P. aeruginosa [1] | enzyme-bound NADH pool [2] | fluorescence lifetime g-value [2] | change in FLIM g-value [2] |
| --- | --- | --- | --- | --- |
| O=C(O)CC(O)(CC(=O)O)C(=O)O [citrate] | did not decrease the surface density | decreased | increasing g-values | greatest increases |
| OCC(O)CO [glycerol] | – | relatively small impacts | increasing g-values | smallest changes |
